# Structures can show the parent of a compound that is named as a salt.
# Molecular target: T1, Full-length glucokinase (beta cell isoform) (Homo sapiens, UniProt P35557)
# T1 construct: Full-length glucokinase (beta cell isoform) was His-tagged at N-terminus; His tag (N); made in house
# T1 sequence (P35557 1-465): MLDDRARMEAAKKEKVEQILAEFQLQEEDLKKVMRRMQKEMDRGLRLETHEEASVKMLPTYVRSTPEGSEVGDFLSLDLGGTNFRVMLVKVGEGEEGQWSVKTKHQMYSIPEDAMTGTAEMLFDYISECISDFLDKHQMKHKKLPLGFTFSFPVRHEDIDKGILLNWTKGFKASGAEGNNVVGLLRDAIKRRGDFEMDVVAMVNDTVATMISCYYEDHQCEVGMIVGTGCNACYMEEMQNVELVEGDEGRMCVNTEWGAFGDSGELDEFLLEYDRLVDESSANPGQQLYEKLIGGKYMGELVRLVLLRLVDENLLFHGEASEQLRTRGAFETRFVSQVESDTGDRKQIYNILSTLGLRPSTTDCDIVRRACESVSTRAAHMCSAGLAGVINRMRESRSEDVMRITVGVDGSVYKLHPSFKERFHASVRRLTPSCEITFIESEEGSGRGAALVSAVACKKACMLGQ
# Experiment: Glucokinase activation assay (PK/LDH-coupled, NADH depletion at 340 nm)
# Type: biochemical
# Conditions: 5 mM glucose, 2.5 mM ATP, pH 7.1, room temperature, values given as a range where N>1; for Emax: fitted % max activation, read-out: Maximum Activation
# Experimental: Full-length glucokinase (beta cell isoform) was His-tagged at N-terminus and purified by a Ni column followed by size exclusion chromatography. A 320 mL column was packed in house using Pharmacia Superdex75 preparation grade resin. Glucose was obtained from Calbiochem (San Diego, Calif.) and other reagents were purchased from Sigma (St. Louis, Mo.).
# All assays were performed in a Corning 384-well plate using Spectramax PLUS spectrophotometer (Molecular Devices, Sunnyvale, Calif.) at room temperature. The final assay volume was 40 μL. The buffer conditions used in this assay were as follows: 50 mM HEPES, 5 mM glucose, 2.5 mM ATP, 3.5 mM MgCl2, 0.7 mM NADH, 2 mM dithiothreitol, 1 Unit/mL PK/LDH, 0.2 mM phosphoenolpyruvate, and 25 mM KCl. The buffer pH was 7.1. The test compound in DMSO solution was added to the buffer and mixed by a plate shaker for 7.5 minutes. The final concentration of DMSO introduced into the assay was 0.25%.
# Glucokinase was added to the buffer mixture to initiate the reaction in the presence and absence of compound. The reaction was monitored by absorbance at 340 nm due to the depletion of NADH. The initial reaction velocity was measured by the slope of a linear time course of 0-300 seconds. The percentage of activation was calculated by the following equation:
# % Activation=(Va/Vo−1)×100;
# wherein each of Va and Vo is defined as the initial reaction velocity in the presence and absence of the tested compound, respectively.
# To determine the EC50 (half maximal effective concentration) and % maximum activation, compounds were serially diluted in DMSO by 3-fold. The GK activities were measured as a function of compound concentrations. The data were fitted to the equation below to obtain the EC50 and % max activation values:
# Va/Vo=1+(% max activation/100)/(1+EC50/compound concentration)
smiles,measurement,value
"CCOC(=O)Cc1cnc(NC(=O)[C@H](CC2CCCC2)n2cc(C(F)(F)F)ccc2=O)s1 [Example 25, (S)-ethyl 2-(2-(3-cyclopentyl-2-(2-oxo-5-(trifluoromethyl)pyridin-1(2H)-yl)propanamido)thiazol-5-yl)acetate]",Emax,84%
same,EC50,2.9 µM
"O=C(O)Cc1cnc(NC(=O)[C@H](CC2CCCC2)n2cc(C(F)(F)F)ccc2=O)s1 [Example 26, (S)-2-(2-(3-cyclopentyl-2-(2-oxo-5-(trifluoromethyl)pyridin-1(2H)-yl)propanamido)thiazol-5-yl)acetic acid mono acetic acid salt]",Emax,116%
same,EC50,11.1 µM
"COC(=O)c1ccc(NC(=O)[C@H](CC2CCCC2)n2cc(C(F)(F)F)ccc2=O)nc1 [Example 27, (S)-methyl 6-(3-cyclopentyl-2-(2-oxo-5-(trifluoromethyl)pyridin-1(2H)-yl)propanamido)nicotinate]",Emax,84%
same,EC50,0.2 µM
"O=C(O)c1ccc(NC(=O)[C@H](CC2CCCC2)n2cc(C(F)(F)F)ccc2=O)nc1 [Example 28, (S)-6-(3-cyclopentyl-2-(2-oxo-5-(trifluoromethyl)pyridin-1(2H)-yl)propanamido)nicotinic acid mono acetic acid salt]",Emax,147%
same,EC50,0.5 µM
"CCOP(=O)(Cc1cnc(NC(=O)[C@H](CC2CCCC2)n2cc(C(F)(F)F)ccc2=O)cn1)OCC [Example 29, (S)-diethyl (5-(3-cyclopentyl-2-(2-oxo-5-(trifluoromethyl)pyridin-1(2H)-yl)propanamido)-pyrazin-2-yl)methylphosphonate]",Emax,141%
same,EC50,5.7 µM
"O=C(Nc1ccn(Cc2ccccc2)n1)[C@H](CC1CCCC1)n1ccc(C(F)(F)F)cc1=O [Example 30, (S)—N-(1-benzyl-1H-pyrazol-3-yl)-3-cyclopentyl-2-(2-oxo-4-(trifluoromethyl)pyridin-1(2H)-yl)propanamide]",Emax,58%
same,EC50,4.2 µM
"CC(C)(O)Cn1ccc(NC(=O)[C@H](CC2CCCC2)n2cc(C(F)(F)F)ccc2=O)n1 [Example 31, (S)-3-cyclopentyl-N-(1-(2-hydroxy-2-methylpropyl)-1H-pyrazol-3-yl)-2-(2-oxo-5-(trifluoromethyl)pyridin-1(2H)-yl)propanamide]",Emax,172 to 194%
same,EC50,1.1 to 2 µM
"CC(C)(O)Cn1ccc(NC(=O)[C@H](CC2CCCC2)n2ccc(C(F)(F)F)cc2=O)n1 [Example 32, (S)-3-cyclopentyl-N-(1-(2-hydroxy-2-methylpropyl)-1H-pyrazol-3-yl)-2-(2-oxo-4-(trifluoromethyl)pyridin-1(2H)-yl)propanamide]",Emax,87 to 90%
same,EC50,6.9 to 7.5 µM
"O=C(Nc1ccc(CO)cn1)[C@H](CC1CCCC1)n1cc(C(F)(F)F)ccc1=O [Example 33, (S)-3-cyclopentyl-N-(5-(hydroxymethyl)pyridin-2-yl)-2-(2-oxo-5-(trifluoromethyl)pyridin-1(2H)-yl)propanamide]",Emax,85 to 159%
same,EC50,0.3 to 0.5 µM
"O=C(O)c1ccc(NC(=O)[C@H](CC2CCCC2)n2ccc(C(F)(F)F)cc2=O)nc1 [Example 34, (S)-6-(3-cyclopentyl-2-(2-oxo-4-(trifluoromethyl)pyridin-1(2H)-yl)propanamido)nicotinic acid]",Emax,100 to 102%
same,EC50,1.8 to 2.7 µM
"Cc1cnc(NC(=O)[C@H](CC2CCCC2)n2cnc(C(F)F)cc2=O)cn1 [Example 35, (S)-3-cyclopentyl-2-(4-(difluoromethyl)-6-oxopyrimidin-1(6H)-yl)-N-(5-methylpyrazin-2-yl)propanamide]",Emax,144%
same,EC50,45 µM
"Cc1ccc(NC(=O)[C@H](CC2CCCC2)n2cnc(C(F)F)cc2=O)nc1 [Example 36, (S)-3-cyclopentyl-2-(4-(difluoromethyl)-6-oxopyrimidin-1(6H)-yl)-N-(5-methylpyridin-2-yl)propanamide]",Emax,106%
same,EC50,8.1 µM
"O=C(O)c1ccc(NC(=O)[C@H](CC2CCCCC2)n2ccc(C(F)(F)F)cc2=O)nc1 [Example 37, (S)-6-(3-cyclohexyl-2-(2-oxo-4-(trifluoromethyl)pyridin-1(2H)-yl)propanamido)nicotinic acid]",Emax,92 to 101%
same,EC50,1.5 to 3.5 µM
"Cc1ccc(NC(=O)[C@H](CC2CCOCC2)n2cc(C(F)(F)F)ccc2=O)nc1 [Example 38, (S)—N-(5-methylpyridin-2-yl)-2-(2-oxo-5-(trifluoromethyl)pyridin-1(2H)-yl)-3-(tetrahydro-2H-pyran-4-yl)propanamide]",Emax,57 to 70%
same,EC50,2.9 to 4.6 µM
"Cc1cnc(NC(=O)[C@H](CC2CCOCC2)n2cc(C(F)(F)F)ccc2=O)cn1 [Example 39, (S)—N-(5-methylpyrazin-2-yl)-2-(2-oxo-5-(trifluoromethyl)pyridin-1(2H)-yl)-3-(tetrahydro-2H-pyran-4-yl)propanamide]",EC50,> 100 µM
"Cn1ccc(NC(=O)[C@H](CC2CCOCC2)n2cc(C(F)(F)F)ccc2=O)n1 [Example 40, (S)—N-(1-methyl-1H-pyrazol-3-yl)-2-(2-oxo-5-(trifluoromethyl)pyridin-1(2H)-yl)-3-(tetrahydro-2H-pyran-4-yl)propanamide]",Emax,121%
same,EC50,54 µM
"Cc1ccc(NC(=O)[C@H](CC2CCOCC2)n2ccc(C(F)(F)F)cc2=O)nc1 [Example 41, (S)—N-(5-methylpyridin-2-yl)-2-(2-oxo-4-(trifluoromethyl)pyridin-1(2H)-yl)-3-(tetrahydro-2H-pyran-4-yl)propanamide]",EC50,> 100 µM
"Cc1cnc(NC(=O)[C@H](CC2CCOCC2)n2ccc(C(F)(F)F)cc2=O)cn1 [Example 42, (S)—N-(5-methylpyrazin-2-yl)-2-(2-oxo-4-(trifluoromethyl)pyridin-1(2H)-yl)-3-(tetrahydro-2H-pyran-4-yl)propanamide]",EC50,> 100 µM
"Cn1ccc(NC(=O)[C@H](CC2CCOCC2)n2ccc(C(F)(F)F)cc2=O)n1 [Example 43, (S)—N-(1-methyl-1H-pyrazol-3-yl)-2-(2-oxo-4-(trifluoromethyl)pyridin-1(2H)-yl)-3-(tetrahydro-2H-pyran-4-yl)propanamide]",EC50,> 100 µM
